Reference: patent US20230058623A1, “NOVEL HETEROARYL-TRIAZOLE COMPOUNDS AS PESTICIDES” (Bayer Aktiengesellschaft, priority 2019, published 2023)
Like-named read-outs stand apart in the source and are kept apart here.

Experiments:
Assay type in all cases: in vivo
[1] = test system: adult engorged female ticks (Rhipicephalus microplus); assay: Rhipicephalus (Boophilus) microplus injection test; details: 168 h, read-out: activity (efficacy: infertile eggs)
Summary of the method: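 Five adult engorged female ticks injected into the abdomen with 1 μL compound solution in DMSO, then held in a climate chamber. Fertile egg deposition assessed after 7 days, unclear eggs kept until hatching (about 42 days); efficacy 100% = all eggs infertile, 0% = all fertile.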

[2] = test system: Rhipicephalus (Boophilus) microplus larvae (strain Parkhurst, resistant against synthetic pyrethroids); assay: Rhipicephalus (Boophilus) microplus in-vitro contact test, larval cattle tick; details: read-out: activity (efficacy: larvae dead or moribund)
Summary of the method: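 Acetone solutions were coated onto glass tube walls, giving 5 μg/cm^2 at 900 ppm. Once dry, 20–50 pyrethroid-resistant Parkhurst larvae were added per tube and held 48 h at 27 °C and 85% RH. Efficacy was scored by negative geotaxis as the percentage of dead or moribund larvae.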

[3] = test system: fall armyworm larvae (Spodoptera frugiperda); assay: Spodoptera frugiperda spray test; details: 168 h, application rate 100 g/ha, after 7 days, maize leaf sections
Summary of the method: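 Maize leaf sections sprayed with compound diluted in water with 1000 ppm emulsifier, then infested with larvae once dry. Mortality (%) scored after 7 days; 100% = all caterpillars killed.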

[4] = test system: adult unfed cat fleas (Ctenocephalides felis); assay: Ctenocephalides felis oral test; details: 48 h, read-out: activity (mortality)
Experimental: Ctenocephalides felis—Oral Test
Solvent: dimethyl sulfoxide
To produce a suitable preparation of active compound, 10 mg of active compound are dissolved in 0.5 mL solvent, and the concentrate is diluted with citrated cattle blood to the desired concentration.
Approximately 20 adult unfed cat fleas (Ctenocephalides felis) are placed in a flea chamber whose top and bottom is covered with gauze. A chamber whose bottom is sealed with parafilm, is filled with the blood-compound solution and placed on top of the flea chamber, so that the fleas can suck the blood. The blood chamber is heated to 37° C. whereas the flea chamber is kept at room temperature.
After 2 days mortality in % is determined. 100% means all the fleas have been killed; 0% means none of the fleas have been killed.

[5] = test system: larvae of the banded cucumber beetle (Diabrotica balteata); assay: Diabrotica balteata spray test; details: 168 h, application rate 100 g/ha (=32 μg/well), after 7 days, wheat seeds, read-out: activity (efficacy: seedlings grown)
Summary of the method: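 Wheat seeds germinated 1 day on agar were sprayed with compound diluted in water with 1000 ppm emulsifier, then infested with 10-20 Diabrotica balteata larvae. Efficacy in % scored after 7 days: 100% = seedlings grown as untreated, uninfected control; 0% = no seedlings grown.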

[6] = test system: green peach aphid (Myzus persicae); assay: Myzus persicae oral test; details: 120 h, read-out: activity (mortality)
Summary of the method: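 Oral uptake format: water-diluted acetone concentrate of compound is blended into IPL41 medium carrying 33%+15% sugar and offered under a parafilm membrane. Percentage of dead insects is recorded after 5 days.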

[7] = test system: adult cat fleas (Ctenocephalides felis); assay: Ctenocephalides felis in-vitro contact test, adult cat flea; details: application rate 5 μg/cm^2 (=500 g/ha), after 48 hours, read-out: activity (efficacy: fleas dead or moribund)
Summary of the method: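 Acetone solutions of compound were coated onto inner walls of glass tubes (900 ppm giving 5 μg/cm^2) and dried; 5-10 adult C. felis were then held 48 h at room temperature. Efficacy = % fleas dead or moribund, judged by inability to escape a 45-50° C heating plate within 5 min.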

[8] = test system: adult brown dog ticks (Rhipicephalus sanguineus); assay: Rhipicephalus sanguineus in-vitro contact test, adult brown dog ticks; details: application rate 5 μg/cm^2 (=500 g/ha), after 48 hours, read-out: activity (efficacy: ticks dead or moribund)
Summary of the method: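 Acetone solution (900 ppm giving 5 μg/cm²) coated on inner walls of glass tubes; after drying, 5-10 adult ticks added and held at room temperature 48 h. Ticks then placed on 45-50 °C plate ≤5 min; those unable to climb away scored dead/moribund, efficacy as % affected.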

[9] = test system: green peach aphid (Myzus persicae); assay: Myzus persicae spray test; details: foliar, 120 h, read-out: activity (mortality)
Summary of the method: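 Chinese cabbage leaf disks infested with all aphid instars were sprayed with compound diluted in water containing emulsifier (1000 ppm). Mortality (%) was scored after 5 days, 100% meaning all aphids killed.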

[10] = test system: larvae of the southern green stink bug (Nezara viridula); assay: Nezara viridula spray test; details: in Hordeum vulgare, 96 h, read-out: activity (mortality)
Summary of the method: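 Barley plants sprayed with the active compound in emulsifier-containing water, then infested with stink bug larvae. Mortality scored in % after 4 days, with 100% meaning all insects killed.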

[11] = application rate 4 μg/tick, egg deposition after 7 days
[12] = application rate 1 μg/cm^2 (=100 g/ha), after 48 hours
[13] = application rate 5 μg/cm^2 (=500 g/ha), after 48 hours
[14] = application rate 100 g/ha, after 5 days, Chinese cabbage leaf disks

Structure (SMILES): CC(NC(=O)c1cc(C(F)(F)F)cc(C(F)(F)F)c1)c1nc(I)nn1-c1ccc(C(=O)N2CCOCC2)cn1 (racemic) [Example I-84, N-[1-[5-iodo-2-[5-(morpholine-4-carbonyl)-2-pyridyl]-1,2,4-triazol-3-yl]ethyl]-3,5-bis(trifluoromethyl)benzamide]
- pest or weed control at 0.004 mg [1, 11]: 100%
- pest or weed control at 1 µg/cm2, 100 g/ha [2, 12]: 100%
- pest or weed control at 5 µg/cm2, 500 g/ha [2, 13]: 100%
- mortality at 100 g/ha [3]: 100%
- mortality at 100 ppm [4]: 100%
- pest or weed control at 32 µg/disc, 100 g/ha [5]: 100%

Structure (SMILES): C[C@H](NC(=O)c1cc(C(F)(F)F)cc(C(F)(F)F)c1)c1ncnn1-c1ccc(C(=O)N2CCCC(O)C2)cn1 (stereo partly drawn) [Example I-7]
- pest or weed control at 0.004 mg [1, 11]: 100%
- pest or weed control at 1 µg/cm2, 100 g/ha [2, 12]: 90%
- pest or weed control at 5 µg/cm2, 500 g/ha [2, 13]: 90%
- mortality at 4 ppm [6]: 100%
- pest or weed control at 5 µg/cm2 [7]: 90%
- mortality at 100 ppm [4]: 90%

Structure (SMILES): Cc1nc([C@H](C)NC(=O)c2cc(C(F)(F)F)cc(C(F)(F)F)c2)n(-c2ncc(C(=O)N3CCC3)s2)n1 [Example I-17]
- pest or weed control at 0.004 mg [1, 11]: 100%
- pest or weed control at 1 µg/cm2, 100 g/ha [2, 12]: 100%
- pest or weed control at 5 µg/cm2, 500 g/ha [2, 13]: 100%
- mortality at 4 ppm [6]: 100%
- pest or weed control at 5 µg/cm2 [7]: 80%
- mortality at 100 g/ha [3]: 100%
- mortality at 100 ppm [4]: 100%

Structure (SMILES): Cc1nc([C@H](C)NC(=O)c2cc(Cl)cc(C(F)(F)F)c2)n(-c2ccc(C(=O)N3CC[C@H](F)C3)cn2)n1 [Example I-18]
- pest or weed control at 0.004 mg [1, 11]: 100%
- pest or weed control at 1 µg/cm2, 100 g/ha [2, 12]: 100%
- pest or weed control at 5 µg/cm2, 500 g/ha [2, 13]: 90%
- pest or weed control at 5 µg/cm2 [7]: 90%
- mortality at 100 g/ha [3]: 100%
- mortality at 100 ppm [4]: 100%
- pest or weed control at 5 µg/cm2, 500 g/ha [8]: 100%

Structure (SMILES): Cc1nc([C@H](C)NC(=O)c2cc(Cl)cc(C(F)(F)F)c2)n(-c2ccc(C(=O)N3CC[C@@H](F)C3)cn2)n1 [Example I-19]
- pest or weed control at 0.004 mg [1, 11]: 100%
- pest or weed control at 1 µg/cm2, 100 g/ha [2, 12]: 100%
- pest or weed control at 5 µg/cm2, 500 g/ha [2, 13]: 100%
- mortality at 4 ppm [6]: 90%
- pest or weed control at 5 µg/cm2 [7]: 100%
- mortality at 100 g/ha [3]: 100%
- mortality at 100 ppm [4]: 100%
- pest or weed control at 5 µg/cm2, 500 g/ha [8]: 100%

Structure (SMILES): Cc1nc([C@H](C)NC(=O)c2cc(Cl)cc(C(F)(F)F)c2)n(-c2ccc(C(=O)N3CCCC3)cn2)n1 [Example I-22]
- pest or weed control at 0.004 mg [1, 11]: 100%
- pest or weed control at 1 µg/cm2, 100 g/ha [2, 12]: 90%
- pest or weed control at 5 µg/cm2, 500 g/ha [2, 13]: 90%
- pest or weed control at 5 µg/cm2 [7]: 90%
- mortality at 100 g/ha [3]: 100%
- mortality at 100 ppm [4]: 80%
- pest or weed control at 5 µg/cm2, 500 g/ha [8]: 100%

Structure (SMILES): C[C@@H]1CN(C(=O)c2ccc(-n3ncnc3[C@H](C)NC(=O)c3cc(Cl)cc(C(F)(F)F)c3)nc2)CCO1 [Example I-32]
- pest or weed control at 0.004 mg [1, 11]: 100%
- pest or weed control at 1 µg/cm2, 100 g/ha [2, 12]: 100%
- pest or weed control at 5 µg/cm2, 500 g/ha [2, 13]: 100%
- mortality at 4 ppm [6]: 100%
- pest or weed control at 5 µg/cm2 [7]: 100%
- mortality at 100 g/ha [3]: 100%
- mortality at 100 ppm [4]: 90%
- pest or weed control at 32 µg/disc, 100 g/ha [5]: 100%
- pest or weed control at 5 µg/cm2, 500 g/ha [8]: 100%
- mortality at 100 g/ha [9, 14]: 100%

Structure (SMILES): C[C@H](NC(=O)c1cc(Cl)cc(C(F)(F)F)c1)c1ncnn1-c1ccc(C(=O)N2CCOC[C@@H]2C)cn1 [Example I-37]
- pest or weed control at 0.004 mg [1, 11]: 100%
- pest or weed control at 1 µg/cm2, 100 g/ha [2, 12]: 100%
- pest or weed control at 5 µg/cm2, 500 g/ha [2, 13]: 100%
- mortality at 100 g/ha [3]: 100%
- mortality at 100 ppm [4]: 80%
- pest or weed control at 32 µg/disc, 100 g/ha [5]: 100%
- pest or weed control at 5 µg/cm2, 500 g/ha [8]: 100%

Structure (SMILES): C[C@H](NC(=O)c1cc(Cl)cc(C(F)(F)F)c1)c1ncnn1-c1ccc(C(=O)N2CC3CC(C2)O3)cn1 [Example I-41]
- pest or weed control at 0.004 mg [1, 11]: 100%
- pest or weed control at 1 µg/cm2, 100 g/ha ([2]; 48 h): 100%
- pest or weed control at 5 µg/cm2, 500 g/ha ([2]; 48 h): 100%
- mortality at 4 ppm [6]: 100%
- pest or weed control at 5 µg/cm2 [7]: 80%
- mortality at 100 ppm [4]: 100%
- pest or weed control at 32 µg/disc, 100 g/ha [5]: 100%
- pest or weed control at 5 µg/cm2, 500 g/ha [8]: 100%
- mortality at 100 g/ha ([9]; in Brassica rapa): 90%

Structure (SMILES): CC(NC(=O)c1cc(Cl)cc(OC(F)(F)F)c1)c1nc(C(F)F)nn1-c1ccc(C(=O)N2CCOCC2)cn1 (stereo not drawn) [Example I-59]
- pest or weed control at 0.004 mg [1, 11]: 100%
- mortality at 20 ppm [6]: 100%
- mortality at 100 ppm [4]: 100%
- pest or weed control at 32 µg/disc, 100 g/ha [5]: 80%

Structure (SMILES): Cc1nc([C@H](C)NC(=O)c2cc(C(F)(F)F)cc(C(F)(F)F)c2)n(-c2ccc(C(=O)N3CCC[Si](C)(C)C3)cn2)n1 [Example I-93]
- pest or weed control at 0.004 mg [1]: 100%
- pest or weed control at 1 µg/cm2, 100 g/ha ([2]; 48 h): 90%
- pest or weed control at 5 µg/cm2, 500 g/ha ([2]; 48 h): 90%
- mortality at 100 ppm [4]: 100%
- mortality at 500 g/ha [10]: 90%

Structure (SMILES): C[C@@H]1CN(C(=O)c2ccc(-n3ncnc3[C@H](C)NC(=O)c3cc(OC(F)(F)F)cc(C4CC4)c3)nc2)C[C@@H](C)O1 [Example I-116]
- pest or weed control at 0.004 mg [1, 11]: 100%
- pest or weed control at 1 µg/cm2, 100 g/ha [2, 12]: 100%
- pest or weed control at 5 µg/cm2, 500 g/ha [2, 13]: 100%
- mortality at 4 ppm [6]: 100%
- pest or weed control at 5 µg/cm2 [7]: 100%
- mortality at 100 ppm [4]: 100%
- pest or weed control at 32 µg/disc, 100 g/ha [5]: 80%
- pest or weed control at 5 µg/cm2, 500 g/ha [8]: 80%
- mortality at 100 g/ha [9, 14]: 90%

Structure (SMILES): Cc1nc([C@H](C)NC(=O)c2cc(OC(F)(F)F)cc(C3CC3)c2)n(-c2ccc(C(=O)N3C[C@@H](C)O[C@H](C)C3)cn2)n1 [Example I-117]
- pest or weed control at 0.004 mg [1, 11]: 100%
- pest or weed control at 1 µg/cm2, 100 g/ha [2, 12]: 90%
- pest or weed control at 5 µg/cm2, 500 g/ha [2, 13]: 90%
- mortality at 4 ppm [6]: 100%
- pest or weed control at 5 µg/cm2 [7]: 100%
- mortality at 100 ppm [4]: 90%
- pest or weed control at 5 µg/cm2, 500 g/ha [8]: 100%
- mortality at 100 g/ha [9, 14]: 90%
